Broadly, the IC50 is the midpoint of a concentration-inhibition curve. A high value points to lower potency.

Drawing on patent US5212163A, “Compounds” (Beecham Group p.l.c., priority 1989, dated 1993), this text covers IC50 for two molecules.

This experiment addresses rabbit bone collagenase (Oryctolagus cuniculus, UniProt P13943). Description: biochemical. As to the method: The test is performed essentially as in Cawston and Barrett Anal. Biochem. 99, 340-345 (1979). Compounds for testing are dissolved in methanol and added to purified rabbit bone collagenase or human collagenase purified from culture supernatants from the human lung fibroblast cell line, WI-38, diluted in a suitable aqueous buffer. After a 5 min pre-incubation at 37° C., the assay tubes are cooled to 4° C. and ^14 C-acetylated rat skin Type I collagen is added. The assay tubes are incubated at 37° C. overnight. The ^14 C-collagen forms insoluble fibrils which are the substrate for the enzyme.
To terminate the assay, the assay tubes are spun at 12000 rpm for 25 min. Undigested ^14 C-collagen remains as insoluble fibrils and is pelleted, while digested ^14 C-collagen remains as soluble peptides in the supernatant. A sample of the supernatant is taken for liquid scintillation counting.

rabbit bone collagenase, sequence (P13943 99-468): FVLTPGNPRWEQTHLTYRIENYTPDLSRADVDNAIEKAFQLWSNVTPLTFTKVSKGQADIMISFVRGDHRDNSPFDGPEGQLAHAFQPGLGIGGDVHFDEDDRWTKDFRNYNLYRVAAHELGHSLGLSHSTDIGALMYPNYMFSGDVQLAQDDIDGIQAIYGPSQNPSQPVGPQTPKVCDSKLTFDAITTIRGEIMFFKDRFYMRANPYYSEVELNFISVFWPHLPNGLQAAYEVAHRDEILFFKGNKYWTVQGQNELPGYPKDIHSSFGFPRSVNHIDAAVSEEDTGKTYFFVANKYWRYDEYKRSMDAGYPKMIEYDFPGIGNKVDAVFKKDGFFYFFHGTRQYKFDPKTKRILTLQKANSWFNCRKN

Take `COC(=O)[C@H](C)NC(=O)[C@H](Cc1c[nH]c2ccccc12)NC(=O)[C@H](CC(C)C)NC(C)P(=O)(O)O` (stereo partly drawn) [Example E1, N-[N-[N-(1-Phosphonoethyl)-leucyl]-(S)-tryptophyl]-(S)-alanine, methyl ester]: half-maximal inhibition (IC50) required 2400 nM. In other words, the single-digit micromolar range.
With `COC(=O)[C@H](C)NC(=O)[C@H](Cc1ccc(OC)cc1)NC(=O)[C@H](CC(C)C)NC(C)P(=O)(O)O` (stereo partly drawn) [Example E2, N-[N-[N-(1-Phosphonoethyl)-leucyl]-O-methyl-(S)-tyrosyl]-(S)-alanine, methyl ester] the figure was 3100 nM.
